Assay results published in article PMC7862291, “Full-length in meso structure and mechanism of rat kynurenine 3-monooxygenase inhibition” (Communications Biology, 2021).

Experiments:
[1] = target: T1, hKMO (Homo sapiens, UniProt O15229); assay: Human KMO enzyme (cell-free) assay, NADPH consumption by absorbance; assay type: biochemical
T1 construct: purchased Origene
Method: (§1) Human KMO was purchased from Origene and used to assay compounds. Full-length Rat-KMO purified for crystallisation was used to assay compounds. Full-length Rat-KMO-expressing membranes were used for mutant assays (Fig. 4b) only. […] Images were taken using Odyssey CLX (LI-COR Biosciences) and quantified using ImageStudio2.0 (LI-COR Biosciences) software.
(§2) Test compounds were dissolved in DMSO and diluted with assay buffer containing 50 mM HEPES, 2 mM MgCl2, 0.5 mM EGTA, 1 mM DTT, 0.05% Tween20 and 0.005% of antiform SI (pH = about 7.9) to prepare a 4% DMSO solution. […] After 5 min of pre-incubation, reactions were started by adding 10 μL of substrate solution containing 2.4 mM kynurenine and 0.6 mM NADPH. Reactions were run for 90 min at 30 °C, then terminated by adding 5 μL of stop buffer (40 mM maleimide, 2 mM WST-9 and 0.1 mM 1-methoky PMS in water). […] Liposomal assays were performed in the same manner except that the composition of the assay buffer was changed (phosphate-buffered saline, 2 mM MgCl2, 1 mM DTT, 0.05% Tween 20).
(§3) Compound assays were analysed and plotted on graphs using Prism (GraphPad Software Inc. San Diego, CA, USA).

[2] = target: T2, Rat KMO (Rattus norvegicus, UniProt O88867); assay: Rat KMO enzyme (cell-free) assay, NADPH consumption by absorbance; assay type: biochemical
T2 construct: The GST-tagged full-length KMO (1-478) baculovirus vector contained a thrombin cleavage site; GST (thrombin cleavage site between GST and KMO) (N, cleaved yes); made in house; host or cells: Spodoptera frugiperda (Sf9), baculovirus
Method: as §1, §2, §3

T1 sequence (O15229 whole entry): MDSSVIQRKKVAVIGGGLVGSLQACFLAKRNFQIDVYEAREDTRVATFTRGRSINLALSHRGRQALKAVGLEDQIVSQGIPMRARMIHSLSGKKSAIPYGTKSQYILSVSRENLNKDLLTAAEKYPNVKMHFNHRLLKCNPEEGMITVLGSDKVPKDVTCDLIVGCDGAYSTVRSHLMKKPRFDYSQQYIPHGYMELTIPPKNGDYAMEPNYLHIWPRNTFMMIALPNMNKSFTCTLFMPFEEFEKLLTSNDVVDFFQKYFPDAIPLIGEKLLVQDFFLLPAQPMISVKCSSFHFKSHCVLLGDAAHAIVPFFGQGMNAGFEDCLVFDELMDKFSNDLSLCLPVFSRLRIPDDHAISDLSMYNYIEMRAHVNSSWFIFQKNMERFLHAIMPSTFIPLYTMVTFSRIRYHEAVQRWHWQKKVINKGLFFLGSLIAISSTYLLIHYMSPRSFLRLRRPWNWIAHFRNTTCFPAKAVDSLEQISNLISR
T2 sequence (O88867 whole entry): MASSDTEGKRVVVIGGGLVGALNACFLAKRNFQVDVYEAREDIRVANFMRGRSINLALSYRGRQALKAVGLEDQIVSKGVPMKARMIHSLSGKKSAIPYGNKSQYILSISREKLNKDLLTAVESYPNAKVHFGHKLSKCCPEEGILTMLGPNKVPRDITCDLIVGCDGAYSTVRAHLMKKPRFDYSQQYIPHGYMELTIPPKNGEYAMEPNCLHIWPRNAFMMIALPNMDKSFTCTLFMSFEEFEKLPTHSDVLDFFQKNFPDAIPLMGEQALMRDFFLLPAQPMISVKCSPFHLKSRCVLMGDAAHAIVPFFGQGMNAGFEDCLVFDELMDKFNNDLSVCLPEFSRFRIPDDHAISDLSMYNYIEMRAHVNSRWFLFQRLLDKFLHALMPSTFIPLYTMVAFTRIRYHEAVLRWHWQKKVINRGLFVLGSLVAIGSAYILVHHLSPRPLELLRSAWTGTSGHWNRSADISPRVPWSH

With COc1ccc2c(c1)CN(c1nc(C(=O)N(C)c3cc(Cl)c(F)cc3C(=O)O)c(Cl)s1)C2 [Compound 4] the IC50 ([1]; cell-free enzyme assay, high kynurenine, read-out: Human KMO IC50) was 0.014 µM, the inhibition at 0.0003 µM ([1]; conc 0.0003 μM, duplicates, read-out: inhibition rate, Hs-KMO cell-free assay (Figure 1A source data)) was 8.45% and the “inhibition rate, Hs-KMO cell-free assay (Figure 1A source data)” value (“inhibition rate, Hs-KMO cell-free assay” for short) ([1]; conc 0.001 μM, duplicates) was 6.826%. For the same molecule, the inhibition at 0.001 µM ([1]; conc 0.001 μM, duplicates, read-out: inhibition rate, Hs-KMO cell-free assay (Figure 1A source data)) was 4.54%, the “inhibition rate, Hs-KMO cell-free assay” value ([1]; conc 0.003 μM, duplicates) was 16.103% and the inhibition at 0.003 µM ([1]; conc 0.003 μM, duplicates, read-out: inhibition rate, Hs-KMO cell-free assay (Figure 1A source data)) was 15.5%. The “inhibition rate, Hs-KMO cell-free assay” value ([1]; conc 0.01 μM, duplicates) was 39.429%, the inhibition at 0.01 µM ([1]; conc 0.01 μM, duplicates, read-out: inhibition rate, Hs-KMO cell-free assay (Figure 1A source data)) was 34.9% and the “inhibition rate, Hs-KMO cell-free assay” value ([1]; conc 0.03 μM, duplicates) was 71.311%. The inhibition at 0.03 µM ([1]; conc 0.03 μM, duplicates, read-out: inhibition rate, Hs-KMO cell-free assay (Figure 1A source data)) was 74.2%, the “inhibition rate, Hs-KMO cell-free assay” value ([1]; conc 0.1 μM, duplicates) was 87.583% and the inhibition at 0.1 µM ([1]; conc 0.1 μM, duplicates, read-out: inhibition rate, Hs-KMO cell-free assay (Figure 1A source data)) was 92.8%. For the same molecule, the “inhibition rate, Hs-KMO cell-free assay” value ([1]; conc 0.3 μM, duplicates) was 98.840%, the inhibition at 0.3 µM ([1]; conc 0.3 μM, duplicates, read-out: inhibition rate, Hs-KMO cell-free assay (Figure 1A source data)) was 106% and the “inhibition rate, Hs-KMO cell-free assay” value ([1]; conc 1 μM, duplicates) was 98.570%. The inhibition at 1 µM ([1]; conc 1 μM, duplicates, read-out: inhibition rate, Hs-KMO cell-free assay (Figure 1A source data)) was 104%, the IC50 ([2]; cell-free enzyme assay, high kynurenine) was 0.017 µM and the “inhibition rate, Rat-KMO cell-free assay (Figure 1B source data)” value (“inhibition rate, Rat-KMO cell-free assay” below) ([2]; conc 0.0003 μM, duplicates) was 10.786%. The inhibition at 0.0003 µM ([2]; conc 0.0003 μM, duplicates, read-out: inhibition rate, Rat-KMO cell-free assay (Figure 1B source data)) was 11.1%, the “inhibition rate, Rat-KMO cell-free assay” value ([2]; conc 0.001 μM, duplicates) was 13.043% and the inhibition at 0.001 µM ([2]; conc 0.001 μM, duplicates, read-out: inhibition rate, Rat-KMO cell-free assay (Figure 1B source data)) was 12.6%. The “inhibition rate, Rat-KMO cell-free assay” value ([2]; conc 0.003 μM, duplicates) was 19.707%, the inhibition at 0.003 µM ([2]; conc 0.003 μM, duplicates, read-out: inhibition rate, Rat-KMO cell-free assay (Figure 1B source data)) was 21.2% and the “inhibition rate, Rat-KMO cell-free assay” value ([2]; conc 0.01 μM, duplicates) was 32.767%. For the same molecule, the inhibition at 0.01 µM ([2]; conc 0.01 μM, duplicates, read-out: inhibition rate, Rat-KMO cell-free assay (Figure 1B source data)) was 33%, the “inhibition rate, Rat-KMO cell-free assay” value ([2]; conc 0.03 μM, duplicates) was 60.579% and the inhibition at 0.03 µM ([2]; conc 0.03 μM, duplicates, read-out: inhibition rate, Rat-KMO cell-free assay (Figure 1B source data)) was 60.5%. The “inhibition rate, Rat-KMO cell-free assay” value ([2]; conc 0.1 μM, duplicates) was 80.975%, the inhibition at 0.1 µM ([2]; conc 0.1 μM, duplicates, read-out: inhibition rate, Rat-KMO cell-free assay (Figure 1B source data)) was 83% and the “inhibition rate, Rat-KMO cell-free assay” value ([2]; conc 0.3 μM, duplicates) was 95.593%. For the same molecule, the inhibition at 0.3 µM ([2]; conc 0.3 μM, duplicates, read-out: inhibition rate, Rat-KMO cell-free assay (Figure 1B source data)) was 101%, the “inhibition rate, Rat-KMO cell-free assay” value ([2]; conc 1 μM, duplicates) was 93.954% and the inhibition at 1 µM ([2]; conc 1 μM, duplicates, read-out: inhibition rate, Rat-KMO cell-free assay (Figure 1B source data)) was 97.8%.
